The source of these data is US20130065962A1, “Compounds For Use In The Treatment Of Diseases” (INOXIA LIFESCIENCES GMBH, priority 2010, published 2013).

Like-named read-outs stand apart in the source and are kept apart here.

Common to all, as to format: biochemical
The target of assay [1] is T1, eosinophil peroxidase (EPO) (Homo sapiens, UniProt P11678).
T1 construct: 20 nM of EPO
T1 sequence (P11678 140-715): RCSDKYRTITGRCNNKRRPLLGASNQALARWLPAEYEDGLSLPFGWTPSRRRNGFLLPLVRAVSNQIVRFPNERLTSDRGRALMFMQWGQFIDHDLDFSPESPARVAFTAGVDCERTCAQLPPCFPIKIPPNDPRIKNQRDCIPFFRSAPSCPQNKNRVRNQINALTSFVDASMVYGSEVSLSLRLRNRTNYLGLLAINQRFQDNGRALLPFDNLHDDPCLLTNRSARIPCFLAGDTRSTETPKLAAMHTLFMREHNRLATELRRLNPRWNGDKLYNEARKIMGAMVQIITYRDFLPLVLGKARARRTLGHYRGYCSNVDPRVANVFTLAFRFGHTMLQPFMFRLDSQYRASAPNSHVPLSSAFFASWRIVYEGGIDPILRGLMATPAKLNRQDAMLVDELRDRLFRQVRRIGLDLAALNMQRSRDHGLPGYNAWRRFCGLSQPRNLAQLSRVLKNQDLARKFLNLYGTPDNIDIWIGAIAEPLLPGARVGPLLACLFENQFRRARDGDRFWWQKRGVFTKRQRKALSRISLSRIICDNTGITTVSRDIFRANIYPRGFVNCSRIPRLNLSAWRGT
The assay is described as follows: EPO bromination activity, monochlorodimedon (MCD) assay. As for the experimental part: In order to test to what extent the substances according to the invention are able to inhibit EPO, the substances were tested for their inhibitory potential. […] In that, IC50 is that inhibitor concentration, which is required to inhibit an enzyme, here EPO, by 50%. This concentration is determined UV/Vis spectrophotometrically at 290 nm in the steady-state with a monochlorodimedon (MCD) assay.
Eosinophil peroxidase forms a multiplicity of different enzyme intermediates and is able to catalyze a high number of redox reactions. The physiological role of EPO is the oxidation of bromide or thiocyanate, respectively, to hypobromous acid or hypothiocyanate, respectively (also called halogenation cycle). And it is exactly this reaction that has to be inhibited. In the presence of phenolic substances, however, the enzyme can also undergo the so-called peroxidase cycle.
In order to determine the properties of the substances according to the invention to be inhibited, a method was used, in which the bromination activity is examined.
The extent of inhibition of the physiological bromide oxidation was photometrically determined using monochlorodimedon. The halogenation rate (initial inclination of the curve at 290 nm) with inhibitor was related to a blind value (without inhibitor), and therefrom the inactivation rate (in %) was determined. This was entered into a diagram (y-axis) opposite the inhibitor concentration (x-axis), and from the hyperbolic fit of the curve, the IC50 value for each inhibitor was determined.
100 mM of phosphate buffer, pH 7.0
100 μM of monochlorodimedon

Assay [2] has as its target lactoperoxidase (LPO) (UniProt P80025). As to the kind of experiment: LPO + Br halogenation inhibition (MCD assay). To be noted: bromide as substrate.
The target in assay [3] is T2, myeloperoxidase (MPO) (Homo sapiens, UniProt P05164).
T2 sequence (P05164 49-745): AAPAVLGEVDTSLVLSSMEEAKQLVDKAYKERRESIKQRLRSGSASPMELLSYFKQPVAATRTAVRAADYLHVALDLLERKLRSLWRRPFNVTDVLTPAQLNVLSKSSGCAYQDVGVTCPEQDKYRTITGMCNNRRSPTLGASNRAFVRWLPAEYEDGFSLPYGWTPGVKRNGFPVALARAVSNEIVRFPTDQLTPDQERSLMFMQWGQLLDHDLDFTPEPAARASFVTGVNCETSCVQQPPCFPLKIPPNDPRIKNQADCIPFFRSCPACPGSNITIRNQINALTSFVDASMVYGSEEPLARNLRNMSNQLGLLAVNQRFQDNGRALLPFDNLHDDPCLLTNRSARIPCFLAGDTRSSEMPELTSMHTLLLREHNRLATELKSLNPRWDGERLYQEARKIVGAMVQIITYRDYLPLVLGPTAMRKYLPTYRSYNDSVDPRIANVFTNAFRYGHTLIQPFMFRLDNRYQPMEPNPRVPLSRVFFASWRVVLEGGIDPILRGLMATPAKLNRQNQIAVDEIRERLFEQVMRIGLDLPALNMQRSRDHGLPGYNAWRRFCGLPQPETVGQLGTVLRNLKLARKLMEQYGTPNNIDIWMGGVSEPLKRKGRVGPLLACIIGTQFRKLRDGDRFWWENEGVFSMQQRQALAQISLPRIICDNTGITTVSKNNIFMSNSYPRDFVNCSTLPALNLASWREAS
As to the kind of experiment: MPO + Br halogenation inhibition (MCD assay). To be noted: bromide as substrate.

Assay [4] deals with T2, myeloperoxidase (MPO). The assay is described as follows: MPO + Cl halogenation inhibition (MCD assay). To be noted: chloride as substrate.
The mark [5] stands for this setting: bromide oxidation, MCD assay at 290 nm, 100 mM bromide, 20 nM EPO, pH 7.0, read-out: IC50 EPO + Br.
Where [6] appears, read: Example 3, same protocol as Example 1, read-out: IC50 EPO/Br.
Where [7] appears, read: Example 2, tests performed as in Example 1, read-out: IC50 value (EPO).

As to `NNC(=O)CNc1ccc(F)cc1` [(1), 4-fluoro-phenylaminoethane-hydrazide], the IC50 in assay [1] (setting [5]) turned out to be 240 nM; in assay [2], 540 nM; in assay [3] it was 4120 nM; in assay [4] it was 5.43 µM.
On the same counts, the results for `NNC(=O)CNc1ccc(Cl)cc1` [(2), 4-chloro-phenylaminoethane-hydrazide] are 24 nM, 30 nM, 1200 nM and 1.97 µM.
On to `NNC(=O)CNc1ccccc1F` [(3), 2-fluoro-phenylaminoethane-hydrazide], for which the IC50 worked out at 9 nM in assay [1] (setting [5]), 100 nM in assay [2], 1900 nM in assay [3] and 8.8 µM in assay [4]. Besides, the “fold potential relative to compound (6) (EPO IC50)” value in assay [1] (compound (3) compared with non-halogenated compound (6)) is greater than 200 fold.
As to `NNC(=O)CNc1ccc(F)c(Cl)c1` [(4), 4-fluoro-3-chloro-phenylaminoethane-hydrazide], the IC50 in assay [1] (setting [5]) worked out at 19 nM; in assay [2], 140 nM; in assay [3], 547 nM; in assay [4], 2.4 µM.
On the same counts, the results for `NNC(=O)CNc1cccc(Br)c1` [(5), 3-bromo-phenylaminoethane-hydrazide] are 17 nM, 40 nM, 1600 nM and 3.7 µM.
The like results for `NNC(=O)CNc1ccc(F)cc1F` [(7), 2,4-di-fluoro-phenylaminoethane-hydrazide] were, in that order, 34 nM, 322 nM, 2040 nM and 6.55 µM.
The like results for `Cc1ccc(NCC(=O)NN)cc1` [(8), 4-methyl-phenylaminoethane-hydrazide] were, in that order, 2270 nM, 2770 nM, 29400 nM and 32.2 µM.
In the case of `NNC(=O)CNc1ccccc1` [Compound (6), phenylaminoethane-hydrazide], the IC50 in assay [1] (setting [5]) was 2290 nM; in assay [2], 4970 nM; in assay [3], 84600 nM; in assay [4], 46 µM.
With `O=C(O)CNc1ccccc1F` [PD01, N-(2-fluorophenyl)glycin], the IC50 in assay [1] (setting [6]) was determined as 1000 nM.
Take `O=C(O)CNc1ccc(Cl)cc1` [PD02, 2-[(4-chlorophenyl)amino]acetic acid]: in assay [1] (setting [6]), the IC50 stood at 200 nM.
As for `NNC(=O)CSc1ccc(Cl)cc1` [PD06, 2-[(4-chlorophenyl)sulfanyl]acetohydrazide], the IC50 in assay [1] (setting [6]) turned out to be 1200 nM.
Still for that read-out and setting: the value for `NNC(=O)COc1ccc(F)cc1` [PD09, 2-(4-fluorophenoxy)acetohydrazide] was 2700 nM; that for `NNC(=O)COc1ccccc1Br` [PD17, 2-(2-bromophenoxy)acetohydrazide] was 3900 nM.
Still for that read-out and setting: the value for `NNC(=O)CCc1ccccc1O` [PD20, 3-(2-hydroxyphenyl)propanohydrazide] was 3100 nM.
Regarding `CC(C)NNC(=O)c1ccncc1` [iproniazide, N′-isopropylisonicotinohydrazide, reference compound], the IC50 in assay [1] (setting [7]) was greater than 500000 nM.
Consider `NNC(=O)c1ccncc1` [isoniazide, pyridine-4-carbohydrazide, reference compound], for which the IC50 in assay [1] (setting [7]) came to 6040 nM.
